Measured values: ChEMBL document CHEMBL3393020, “Biofilm inhibition of linezolid-like Schiff bases: synthesis, biological activity, molecular docking and in silico ADME prediction” (Bioorg Med Chem Lett, 2015)
Values after ≈ are worked out from the molar mass of the structure shown. Active and inactive are the calls of the source. The rule behind the calls is not given here.

How the values were obtained:
Escherichia coli = experiment: Antibacterial activity against Escherichia coli NCIM-2256 incubated for 24 hrs by two fold serial dilution method; assay type: functional; conditions: NCIM-2256, 24 h
Pseudomonas aeruginosa [1] = experiment: Antibacterial activity against Pseudomonas aeruginosa NCIM-2036 incubated for 24 hrs by two fold serial dilution method; assay type: functional; conditions: NCIM-2036, 24 h
Bacillus subtilis = experiment: Antibacterial activity against Bacillus subtilis NCIM-2063 incubated for 24 hrs by two fold serial dilution method; assay type: functional; conditions: NCIM-2063, 24 h
[2] = Retardation factor of the compound; assay type: physicochemical
Pseudomonas aeruginosa [3] = experiment: Inhibition of biofilm formation of Pseudomonas aeruginosa PAO1 incubated for 18 hrs by crystal violet staining based spectroscopy; assay type: functional, organism-based; conditions: PAO1, 18 h
Pseudomonas aeruginosa [4] = experiment: Effect on planktonic cells growth of Pseudomonas aeruginosa PAO1 incubated for 15 mins by field emission scanning electron microscopy; assay type: organism-based; conditions: 0.25 h
Pseudomonas aeruginosa [5] = experiment: Inhibition of biofilm formation of Pseudomonas aeruginosa PAO1 incubated for 15 mins by field emission scanning electron microscopy; assay type: functional, organism-based

MIC (Escherichia coli) [µg/mL] | MIC (Pseudomonas aeruginosa [1]) [µg/mL] | MIC (Bacillus subtilis) [µg/mL] | Rf [2] | IC50 (Pseudomonas aeruginosa [3]) [µM] | Compound | Activity (Pseudomonas aeruginosa [4]) | inhibition (Pseudomonas aeruginosa [5])
25 (≈ 70.8 µM) | 30 (≈ 84.9 µM) | 20 (≈ 56.6 µM) | 0.48 | 27.5 | Fc1cc(/N=C/c2c(Cl)cccc2Cl)ccc1N1CCOCC1 | – | –
30 (≈ 99.2 µM) | 20 (≈ 66.2 µM) | 20 (≈ 66.2 µM) | 0.52 | 31.1 | Fc1ccc(/C=N/c2ccc(N3CCOCC3)c(F)c2)cc1 | – | –
2 (≈ 5.93 µM) | 2.5 (≈ 7.41 µM) | 3 (≈ 8.89 µM) | – | 15.9 | CC(=O)NC[C@H]1CN(c2ccc(N3CCOCC3)c(F)c2)C(=O)O1 [LINEZOLID] | – | –
10 (≈ 27 µM) | 2.5 (≈ 6.76 µM) | 5 (≈ 13.5 µM) | 0.46 | 13 | Fc1cc(/N=C/c2cc3ccccc3nc2Cl)ccc1N1CCOCC1 | Non-toxic | Active
20 (≈ 58.1 µM) | 20 (≈ 58.1 µM) | 20 (≈ 58.1 µM) | 0.55 | 27.9 | COc1ccc(/C=N/c2ccc(N3CCOCC3)c(F)c2)cc1OC | – | –
30 (≈ 94.8 µM) | 20 (≈ 63.2 µM) | 25 (≈ 79 µM) | 0.59 | 31.6 | Oc1ccc(/C=N/c2ccc(N3CCOCC3)c(F)c2)cc1O | – | –
10 (≈ 26.1 µM) | 3.5 (≈ 9.12 µM) | 10 (≈ 26.1 µM) | 0.44 | 15.6 | Cc1cccc2cc(/C=N/c3ccc(N4CCOCC4)c(F)c3)c(Cl)nc12 | Non-toxic | Active
35 (≈ 123 µM) | 20 (≈ 70.3 µM) | 30 (≈ 106 µM) | 0.64 | 39.4 | Fc1cc(/N=C/c2ccccc2)ccc1N1CCOCC1 | – | –
40 (≈ 124 µM) | 25 (≈ 77.3 µM) | 35 (≈ 108 µM) | 0.52 | 29.1 | Fc1cc(/N=C/c2c[nH]c3ccccc23)ccc1N1CCOCC1 | – | –
35 (≈ 128 µM) | 30 (≈ 109 µM) | 40 (≈ 146 µM) | 0.61 | 35.9 | Fc1cc(/N=C/c2ccoc2)ccc1N1CCOCC1 | – | –

Compound | MIC (Escherichia coli) [µg/mL] | MIC (Pseudomonas aeruginosa [1]) [µg/mL] | MIC (Bacillus subtilis) [µg/mL] | Rf [2] | IC50 (Pseudomonas aeruginosa [3]) [µM] | Activity (Pseudomonas aeruginosa [4]) | inhibition (Pseudomonas aeruginosa [5])
O=C(O)c1cn(C2CC2)c2cc(N3CCNCC3)c(F)cc2c1=O [CIPROFLOXACIN] | 25 (≈ 75.4 µM) | – | – | – | – | – | –
